Values belong to the compound of their own block, whether it stands above or below them.
Tests used:
[1] = molecular target: T1, NUAK family SNF1-like kinase 2 (Homo sapiens) (UniProt Q9H093); test: Selectivity interaction (KinomeScan (DiscoverX)) EUB0000229b NUAK2; conditions: at 10 µM
T1 sequence (whole entry): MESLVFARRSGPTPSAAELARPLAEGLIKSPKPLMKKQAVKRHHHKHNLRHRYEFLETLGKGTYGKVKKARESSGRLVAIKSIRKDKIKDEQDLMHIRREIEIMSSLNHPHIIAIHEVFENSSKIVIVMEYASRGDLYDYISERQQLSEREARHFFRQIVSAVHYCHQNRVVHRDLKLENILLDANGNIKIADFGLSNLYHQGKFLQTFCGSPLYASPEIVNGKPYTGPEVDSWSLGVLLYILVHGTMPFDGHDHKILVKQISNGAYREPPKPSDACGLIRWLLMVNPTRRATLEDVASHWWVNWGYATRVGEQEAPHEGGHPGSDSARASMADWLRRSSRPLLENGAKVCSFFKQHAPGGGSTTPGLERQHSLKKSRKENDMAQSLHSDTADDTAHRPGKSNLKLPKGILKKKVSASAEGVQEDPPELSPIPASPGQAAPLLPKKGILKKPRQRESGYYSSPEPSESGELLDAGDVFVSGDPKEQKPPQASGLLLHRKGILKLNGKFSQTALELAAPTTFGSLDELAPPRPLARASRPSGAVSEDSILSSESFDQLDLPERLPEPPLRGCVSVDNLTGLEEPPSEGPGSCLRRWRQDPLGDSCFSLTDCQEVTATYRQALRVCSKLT

SRSF protein kinase 1 = SRSF protein kinase 1 (Homo sapiens, UniProt Q96SB4); test: Selectivity interaction (KinomeScan (DiscoverX)) EUB0000229b SRPK1; conditions: at 10 µM
SRSF protein kinase 1, sequence (Q96SB4 whole entry): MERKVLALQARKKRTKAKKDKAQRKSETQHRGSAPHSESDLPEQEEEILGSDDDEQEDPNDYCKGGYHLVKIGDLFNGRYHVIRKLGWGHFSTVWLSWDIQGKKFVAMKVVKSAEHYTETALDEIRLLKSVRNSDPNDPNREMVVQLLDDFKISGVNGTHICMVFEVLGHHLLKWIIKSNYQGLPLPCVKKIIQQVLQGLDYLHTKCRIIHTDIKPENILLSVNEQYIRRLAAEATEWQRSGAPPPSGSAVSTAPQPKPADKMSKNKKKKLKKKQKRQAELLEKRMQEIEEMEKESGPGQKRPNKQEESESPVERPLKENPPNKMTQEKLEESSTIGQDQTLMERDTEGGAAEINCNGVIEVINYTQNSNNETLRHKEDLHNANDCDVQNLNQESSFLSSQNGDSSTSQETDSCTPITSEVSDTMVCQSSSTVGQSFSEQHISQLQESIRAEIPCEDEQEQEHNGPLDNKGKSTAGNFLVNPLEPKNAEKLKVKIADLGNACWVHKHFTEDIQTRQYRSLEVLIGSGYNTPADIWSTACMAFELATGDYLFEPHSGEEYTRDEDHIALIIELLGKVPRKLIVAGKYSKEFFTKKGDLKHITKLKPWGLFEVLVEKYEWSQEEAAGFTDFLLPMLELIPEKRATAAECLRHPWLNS

[2] = molecular target: Dual specificity protein kinase CLK4 (Homo sapiens, UniProt Q9HAZ1); test: Selectivity interaction (KinomeScan (DiscoverX)) EUB0000092b CLK4; conditions: at 10 µM
Dual specificity protein kinase CLK4, sequence (Q9HAZ1 whole entry, looked up): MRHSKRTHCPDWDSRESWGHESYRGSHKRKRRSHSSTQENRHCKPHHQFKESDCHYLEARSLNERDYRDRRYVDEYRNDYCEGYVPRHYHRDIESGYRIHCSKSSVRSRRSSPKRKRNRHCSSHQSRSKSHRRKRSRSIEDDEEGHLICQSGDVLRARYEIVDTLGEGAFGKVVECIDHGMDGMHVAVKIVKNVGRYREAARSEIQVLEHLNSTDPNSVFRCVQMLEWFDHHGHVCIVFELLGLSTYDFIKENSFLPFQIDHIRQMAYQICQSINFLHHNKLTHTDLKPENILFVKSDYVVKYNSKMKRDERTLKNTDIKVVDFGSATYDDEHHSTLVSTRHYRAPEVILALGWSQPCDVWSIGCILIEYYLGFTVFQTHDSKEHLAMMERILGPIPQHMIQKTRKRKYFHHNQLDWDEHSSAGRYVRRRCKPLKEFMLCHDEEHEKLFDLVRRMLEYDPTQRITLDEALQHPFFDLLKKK

[3] = molecular target: Mitogen-activated protein kinase 11 (Homo sapiens) (UniProt Q15759); test: Selectivity interaction (KinomeScan (DiscoverX)) EUB0000092b MAPK11; conditions: at 10 µM
[4] = molecular target: Mitogen-activated protein kinase 8 (Homo sapiens, UniProt P45983); test: Selectivity interaction (Upstate Kinase Profiler service (Millipore)) EUB0000056c MAPK8; conditions: at 1 µM
Mitogen-activated protein kinase 8, sequence (P45983 whole entry): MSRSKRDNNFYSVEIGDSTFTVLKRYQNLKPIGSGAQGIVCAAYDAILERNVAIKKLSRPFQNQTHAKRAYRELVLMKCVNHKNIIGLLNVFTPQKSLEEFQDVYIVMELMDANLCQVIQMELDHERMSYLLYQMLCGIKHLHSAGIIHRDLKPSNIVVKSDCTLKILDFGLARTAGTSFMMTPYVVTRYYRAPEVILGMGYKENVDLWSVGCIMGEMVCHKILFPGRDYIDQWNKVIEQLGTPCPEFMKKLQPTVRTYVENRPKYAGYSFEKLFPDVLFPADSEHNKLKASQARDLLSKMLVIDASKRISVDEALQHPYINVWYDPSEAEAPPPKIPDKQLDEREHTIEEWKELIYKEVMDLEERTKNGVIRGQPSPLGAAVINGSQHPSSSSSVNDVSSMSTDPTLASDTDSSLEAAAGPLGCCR

[5] = molecular target: T2, Protein kinase C zeta type (Homo sapiens) (UniProt Q05513); test: Selectivity interaction (Upstate Kinase Profiler service (Millipore)) EUB0000056c PRKCZ; conditions: at 1 µM
T2 sequence (whole entry): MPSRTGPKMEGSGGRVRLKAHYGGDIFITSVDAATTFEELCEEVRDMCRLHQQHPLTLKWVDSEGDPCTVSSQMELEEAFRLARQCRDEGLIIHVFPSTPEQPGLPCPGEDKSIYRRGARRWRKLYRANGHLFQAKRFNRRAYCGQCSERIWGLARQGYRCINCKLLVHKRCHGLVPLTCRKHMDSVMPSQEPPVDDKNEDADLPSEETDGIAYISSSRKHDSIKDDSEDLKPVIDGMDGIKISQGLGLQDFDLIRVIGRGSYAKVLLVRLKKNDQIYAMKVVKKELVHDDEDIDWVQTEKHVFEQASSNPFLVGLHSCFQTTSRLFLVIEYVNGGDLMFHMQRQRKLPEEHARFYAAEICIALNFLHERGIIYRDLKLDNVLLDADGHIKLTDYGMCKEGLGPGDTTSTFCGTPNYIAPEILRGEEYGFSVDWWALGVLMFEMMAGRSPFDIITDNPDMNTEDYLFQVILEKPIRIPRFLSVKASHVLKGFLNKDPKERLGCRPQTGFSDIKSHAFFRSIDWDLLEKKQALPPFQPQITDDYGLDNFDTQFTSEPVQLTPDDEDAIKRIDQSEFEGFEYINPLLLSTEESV

[6] = molecular target: Mitotic checkpoint serine/threonine-protein kinase BUB1 beta (Homo sapiens) (UniProt O60566); test: Selectivity interaction (ProQinase) EUB0000171b BUB1B
Mitotic checkpoint serine/threonine-protein kinase BUB1 beta (Homo sapiens), sequence (O60566 whole entry): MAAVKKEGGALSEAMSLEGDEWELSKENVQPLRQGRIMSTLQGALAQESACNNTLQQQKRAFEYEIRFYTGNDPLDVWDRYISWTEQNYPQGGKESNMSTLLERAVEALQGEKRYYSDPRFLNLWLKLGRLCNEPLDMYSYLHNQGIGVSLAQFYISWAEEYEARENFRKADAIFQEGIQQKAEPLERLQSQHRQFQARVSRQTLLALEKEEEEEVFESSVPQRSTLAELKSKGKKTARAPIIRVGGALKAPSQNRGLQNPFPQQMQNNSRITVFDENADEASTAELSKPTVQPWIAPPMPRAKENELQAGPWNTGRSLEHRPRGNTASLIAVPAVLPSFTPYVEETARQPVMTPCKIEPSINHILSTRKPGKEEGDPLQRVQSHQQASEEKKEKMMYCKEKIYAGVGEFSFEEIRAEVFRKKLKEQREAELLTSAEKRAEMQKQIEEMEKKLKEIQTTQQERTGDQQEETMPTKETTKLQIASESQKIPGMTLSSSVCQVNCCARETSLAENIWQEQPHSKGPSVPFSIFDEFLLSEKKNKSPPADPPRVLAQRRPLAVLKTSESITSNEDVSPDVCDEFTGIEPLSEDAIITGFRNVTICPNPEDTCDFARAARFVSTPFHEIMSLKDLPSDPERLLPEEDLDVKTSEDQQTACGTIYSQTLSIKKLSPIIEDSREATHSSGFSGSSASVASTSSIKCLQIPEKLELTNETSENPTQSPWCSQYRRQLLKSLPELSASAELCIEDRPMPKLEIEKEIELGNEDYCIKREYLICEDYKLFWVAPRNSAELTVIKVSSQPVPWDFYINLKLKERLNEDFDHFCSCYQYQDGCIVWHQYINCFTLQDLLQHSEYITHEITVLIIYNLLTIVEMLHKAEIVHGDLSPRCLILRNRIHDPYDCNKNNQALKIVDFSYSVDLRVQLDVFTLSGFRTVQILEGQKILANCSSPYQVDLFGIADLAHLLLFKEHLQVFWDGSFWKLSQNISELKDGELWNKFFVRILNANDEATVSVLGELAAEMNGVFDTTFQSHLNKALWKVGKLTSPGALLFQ

[7] = system: Tyrosine-protein kinase ABL1 (Homo sapiens), P00519 [E255K]; test: (§1) Selectivity interaction (Kinase panel (Z-LYTE Assay)) EUB0001632a ABL1; conditions: at 10 µM
[8] = system: Tyrosine-protein kinase ABL1 (Homo sapiens), P00519 [F317I]; test: as §1; conditions: at 10 µM
[9] = system: Tyrosine-protein kinase ABL1 (Homo sapiens), P00519 [G250E]; test: as §1; conditions: at 10 µM
[10] = system: Tyrosine-protein kinase ABL1 (Homo sapiens), P00519 [T315I]; test: as §1; conditions: at 10 µM
[11] = system: Tyrosine-protein kinase ABL1 (Homo sapiens), P00519 [Y253F]; test: as §1; conditions: at 10 µM
[12] = molecular target: Tyrosine-protein kinase ABL1 (Homo sapiens, UniProt P00519); test: as §1; conditions: at 10 µM
[13] = molecular target: Bromodomain-containing protein 7 (Homo sapiens) (UniProt Q9NPI1); test: Selectivity interaction (Bromodomain panel (DSF asssay)) EUB0000270b BRD7
[14] = molecular target: Mitogen-activated protein kinase kinase kinase 11 (Homo sapiens) (UniProt Q16584); test: Selectivity interaction (ActivX KiNativ screen (kinase selectivity in THP-1 cell lysates)) EUB0000639a MAP3K11; type: subcellular; conditions: lysate, at 5 µM
[15] = molecular target: Phosphatidylinositol 4-kinase beta (Homo sapiens, UniProt Q9UBF8); test: Selectivity interaction (ActivX KiNativ screen (kinase selectivity in THP-1 cell lysates)) EUB0000639a PI4KB; type: subcellular; conditions: lysate, at 1 µM
Phosphatidylinositol 4-kinase beta, sequence (Q9UBF8 2-816 limits assumed): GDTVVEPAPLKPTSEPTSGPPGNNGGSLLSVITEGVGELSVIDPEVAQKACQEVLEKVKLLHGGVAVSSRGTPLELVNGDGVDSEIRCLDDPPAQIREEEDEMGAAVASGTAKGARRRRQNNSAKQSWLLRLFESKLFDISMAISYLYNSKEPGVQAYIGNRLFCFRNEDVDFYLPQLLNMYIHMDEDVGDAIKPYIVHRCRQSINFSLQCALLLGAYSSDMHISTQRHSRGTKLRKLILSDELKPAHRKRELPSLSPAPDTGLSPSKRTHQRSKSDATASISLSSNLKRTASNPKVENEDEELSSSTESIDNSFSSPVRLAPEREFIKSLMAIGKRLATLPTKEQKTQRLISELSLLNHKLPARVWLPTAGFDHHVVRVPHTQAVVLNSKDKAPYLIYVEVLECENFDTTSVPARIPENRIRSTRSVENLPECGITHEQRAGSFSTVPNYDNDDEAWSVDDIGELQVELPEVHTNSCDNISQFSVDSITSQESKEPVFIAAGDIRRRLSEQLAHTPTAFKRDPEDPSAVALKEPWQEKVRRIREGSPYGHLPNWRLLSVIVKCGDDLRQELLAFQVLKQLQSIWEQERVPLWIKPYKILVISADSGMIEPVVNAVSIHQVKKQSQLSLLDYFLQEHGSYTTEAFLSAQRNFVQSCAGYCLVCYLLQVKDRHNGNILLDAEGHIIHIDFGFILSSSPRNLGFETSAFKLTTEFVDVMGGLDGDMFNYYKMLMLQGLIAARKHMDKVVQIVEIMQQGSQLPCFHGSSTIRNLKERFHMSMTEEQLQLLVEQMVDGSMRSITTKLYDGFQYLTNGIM

[16] = molecular target: Serine/threonine-protein kinase Nek6 (Homo sapiens) (UniProt Q9HC98); test: Selectivity interaction (KinomeScan (DiscoverX)) EUB0000607a NEK6; conditions: at 10 µM
[17] = molecular target: Serine/threonine-protein kinase 25 (Homo sapiens) (UniProt O00506); test: Selectivity interaction (SelectScreen profiling (Invitrogen)) EUB0000607a STK25; conditions: at 2 µM
Serine/threonine-protein kinase 25 (Homo sapiens), sequence (O00506 whole entry, looked up): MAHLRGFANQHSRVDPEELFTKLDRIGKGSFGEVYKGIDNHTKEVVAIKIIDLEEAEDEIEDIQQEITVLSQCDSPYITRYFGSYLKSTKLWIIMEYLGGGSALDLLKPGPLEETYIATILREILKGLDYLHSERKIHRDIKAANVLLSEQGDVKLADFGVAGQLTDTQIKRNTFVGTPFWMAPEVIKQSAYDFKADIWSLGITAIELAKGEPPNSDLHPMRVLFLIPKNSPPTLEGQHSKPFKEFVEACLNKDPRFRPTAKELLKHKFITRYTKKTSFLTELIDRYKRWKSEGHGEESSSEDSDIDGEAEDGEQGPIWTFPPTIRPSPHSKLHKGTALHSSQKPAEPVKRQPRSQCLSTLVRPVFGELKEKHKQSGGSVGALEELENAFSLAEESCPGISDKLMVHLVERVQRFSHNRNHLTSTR

[18] = molecular target: Phosphatidylinositol 4-phosphate 5-kinase type-1 alpha (Homo sapiens) (UniProt Q99755); test: Selectivity interaction (KinomeScan (DiscoverX)) EUB0000695a PIP5K1A; conditions: at 100 nM
Phosphatidylinositol 4-phosphate 5-kinase type-1 alpha (Homo sapiens), sequence (Q99755 whole entry): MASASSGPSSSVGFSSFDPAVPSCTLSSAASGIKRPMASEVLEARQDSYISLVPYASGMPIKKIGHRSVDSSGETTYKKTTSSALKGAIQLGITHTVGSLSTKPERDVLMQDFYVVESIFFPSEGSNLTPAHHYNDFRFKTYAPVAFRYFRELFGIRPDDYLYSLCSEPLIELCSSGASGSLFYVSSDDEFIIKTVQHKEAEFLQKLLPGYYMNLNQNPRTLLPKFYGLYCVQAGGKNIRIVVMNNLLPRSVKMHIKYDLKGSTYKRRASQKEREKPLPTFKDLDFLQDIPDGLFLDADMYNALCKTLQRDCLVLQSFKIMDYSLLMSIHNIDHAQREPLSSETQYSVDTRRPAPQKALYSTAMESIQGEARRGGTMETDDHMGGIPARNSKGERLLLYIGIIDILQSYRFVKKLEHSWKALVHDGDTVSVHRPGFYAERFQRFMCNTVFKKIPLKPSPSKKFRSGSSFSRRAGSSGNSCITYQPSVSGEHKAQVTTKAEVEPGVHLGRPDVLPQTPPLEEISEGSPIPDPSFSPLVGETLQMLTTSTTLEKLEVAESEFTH

[19] = molecular target: Tyrosine-protein kinase Lyn (Homo sapiens, UniProt P07948); test: Selectivity interaction (KinomeScan (DiscoverX)) EUB0000618a LYN; conditions: at 10 µM
Tyrosine-protein kinase Lyn, sequence (P07948 2-512 limits assumed): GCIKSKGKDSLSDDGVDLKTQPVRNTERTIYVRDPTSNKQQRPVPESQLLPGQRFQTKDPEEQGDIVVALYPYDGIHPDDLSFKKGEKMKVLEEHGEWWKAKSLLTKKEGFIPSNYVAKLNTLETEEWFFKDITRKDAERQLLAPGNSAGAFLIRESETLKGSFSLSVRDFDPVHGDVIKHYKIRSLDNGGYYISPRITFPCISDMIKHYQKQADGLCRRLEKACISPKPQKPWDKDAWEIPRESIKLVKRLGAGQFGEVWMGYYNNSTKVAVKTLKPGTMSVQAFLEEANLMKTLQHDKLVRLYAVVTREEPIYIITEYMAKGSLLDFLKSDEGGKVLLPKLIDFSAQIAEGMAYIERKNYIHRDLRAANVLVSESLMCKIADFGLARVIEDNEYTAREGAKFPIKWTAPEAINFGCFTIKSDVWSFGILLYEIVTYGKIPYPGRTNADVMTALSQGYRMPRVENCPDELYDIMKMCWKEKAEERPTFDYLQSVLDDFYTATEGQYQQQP

[20] = molecular target: Non-receptor tyrosine-protein kinase TYK2 (Homo sapiens, UniProt P29597); test: Selectivity interaction (KinomeScan (DiscoverX)) EUB0000618a TYK2; conditions: at 10 µM
[21] = molecular target: Serine/threonine-protein kinase Nek4 (Homo sapiens) (UniProt P51957); test: Selectivity interaction (Ambit KINOMEscan and KiNATiv profiling in Jurkat cells) EUB0000090b NEK4; type: cell-based; conditions: at 1 µM
[22] = molecular target: Protein arginine N-methyltransferase 3 (Homo sapiens, UniProt O60678); conditions: at 10 µM

Compound: COc1cc(N(C)c2ccnc3ccc(C(F)(F)F)cc23)cc(OC)c1OC
% binding [1]: 86%
% binding (SRSF protein kinase 1): 92%

Compound: CCC(=O)N1CCN(c2ccc(-n3c(=O)ccc4cnc5ccc(-c6cnc7ccccc7c6)cc5c43)cc2C(F)(F)F)CC1
% of control [2]: 49%
% of control [3]: 53%

Compound: Cc1cc(CN)cc(C)c1-c1ncn(C)c1-c1cncn1C
dTM [13]: -1.08 K

Compound: CNC(=O)Nc1ccc(-c2nc(N3CC4CCC(C3)O4)c3cnn(C4CCC5(CC4)OCCO5)c3n2)cc1
% of control [16]: 90%
% of inhibition [17]: 2%

Compound: Cc1cc(F)c(C(=O)Nc2cccc(-c3nncn3C(C)C)n2)cc1-n1cnc(C2CC2)c1
% of control [18]: 78%

Compound: O[C@H]1CC[C@H](Nc2ncc3nc(Nc4c(F)cc(F)cc4F)n([C@H]4CCOC4)c3n2)CC1
% of control [19]: 98%
% of control [20]: 61%

Compound: CN(C)C/C=C/C(=O)Nc1ccc(C(=O)N2CCCC(Nc3ncc(Cl)c(-c4c[nH]c5ccccc45)n3)C2)cc1 (centres undefined)
% of control [21]: 100%

Continued, values first:

% of inhibition [4]: 10%
% of inhibition [5]: -8%
Compound: Cc1ccc(-c2ccc3c(ccc4sc5c(c43)NC[C@@H](C)NC5=O)n2)cn1

% of control ([6]; at 1 µM): 95%
% of control ([6]; at 5 µM): 80%
Compound: C=CC(=O)Nc1cccc(C(=O)Nc2ccc(Nc3cc(-c4[nH]c(SC)nc4C)ccn3)cc2)c1

% of control [7]: -3.74%
% of control [8]: 1.78%
% of control [9]: 2.49%
% of control [10]: -2.31%
% of control [11]: 2.36%
% of control [12]: -6.52%
Compound: Cn1cc(-n2cnc3c(NCc4nc5cc(Cl)c(Cl)cc5[nH]4)nc(N4CCOCC4)nc32)cn1

% of inhibition [14]: -18.7%
% of inhibition [15]: -19.1%
Compound: CC[C@@H]1[C@H](F)C(=O)N[C@@H]1COc1nccc2cc(C(N)=O)c(OC)cc12 [ZIMLOVISERTIB]

% activity [22]: > 90%
Compound: CNCCN1CCC(c2cc(CN(C)C(=O)c3cccc(Oc4ccccc4)c3)ccn2)CC1
